Read-outs that look alike come from different tables or passages of the source.
Test system: patients with advanced TP53 wild-type (WT) leukemias
Text: Patients with Ph+ ALL who show early markers of relapse in MRD surveillance can be considered for inclusion as long as other therapies such as TKIs are exhausted or cannot be given. • Tumor of the patient is TP53 wt characterized by, at a minimum, no mutations in exons 5, 6, 7 and 8, and the p53 status was obtained from a bone-marrow sample, collected no longer than 3 months before signing the main ICF. Safety and Tolerability Profile of Regimen 1B in Hematological Tumors

In the case of `COc1ncc(-c2nc3c(n2C(C)C)[C@H](c2ccc(Cl)cc2)N(c2cc(Cl)cn(C)c2=O)C3=O)c(OC)n1` [HDM201, (S)-5-(5-Chloro-1-methyl-2-oxo-1,2-dihydro-pyridin-3-yl)-6-(4-chloro-phenyl)-2-(2,4-dimethoxy-pyrimidin-5-yl)-1-isopropyl-5,6-dihydro-1H-pyrrolo[3,4-d]imidazol-4-one], the “AE: Iron Overload” value (Regimen 1A N = 16, Grade 3/4) is reported as 0 n (%), the “AE: Leukopenia” value (Regimen 1A N = 16, Grade 3/4) is reported as 2 (12.5) n (%) and the “AE: Lip Oedema” value (Regimen 1A N = 16, Grade 3/4) is reported as 0 n (%). For the same molecule, the “AE: Lipase Increased” value (Regimen 1A N = 16, Grade 3/4) was 2 (12.5) n (%), the “AE: Macular Oedema” value (Regimen 1A N = 16, Grade 3/4) was 0 n (%) and the “AE: Malaise” value (Regimen 1A N = 16, Grade 3/4) was 0 n (%). For the same molecule, the “AE: Mouth Haemorrhage” value (Regimen 1A N = 16, Grade 3/4) was 0 n (%), the “AE: Nausea” value (Regimen 1A N = 16, Grade 3/4) was 0 n (%) and the “AE: Neutropenia/Neutrophil Count Decreased” value (Regimen 1A N = 16, Grade 3/4) was 6 (37.5) n (%). The “AE: Oedema” value (Regimen 1A N = 16, Grade 3/4) was 0 n (%), the “AE: Oral Disorder” value (Regimen 1A N = 16, Grade 3/4) was 0 n (%) and the “AE: Pain In Extremity” value (Regimen 1A N = 16, Grade 3/4) was 0 n (%). The “AE: Pancytopenia” value (Regimen 1A N = 16, Grade 3/4) was 0 n (%), the “AE: Pneumonia” value (Regimen 1A N = 16, Grade 3/4) was 0 n (%) and the “AE: Pollakiuria” value (Regimen 1A N = 16, Grade 3/4) was 0 n (%). For the same molecule, the “AE: Pyrexia” value (Regimen 1A N = 16, Grade 3/4) was 0 n (%), the “AE: Rash” value (Regimen 1A N = 16, Grade 3/4) was 0 n (%) and the “AE: Rash Erythematous” value (Regimen 1A N = 16, Grade 3/4) was 0 n (%). For the same molecule, the “AE: Rash Papular” value (Regimen 1A N = 16, Grade 3/4) was 0 n (%), the “AE: Rectal Haemorrhage” value (Regimen 1A N = 16, Grade 3/4) was 0 n (%) and the “AE: Renal Failure” value (Regimen 1A N = 16, Grade 3/4) was 0 n (%). The “AE: Skin Exfoliation” value (Regimen 1A N = 16, Grade 3/4) was 0 n (%), the “AE: Stomatitis” value (Regimen 1A N = 16, Grade 3/4) was 1 (6.3) n (%) and the “AE: Subarachnoid Haemorrhage” value (Regimen 1A N = 16, Grade 3/4) was 1 (6.3) n (%). The “AE: Thrombocytopenia/Platelet Count Decreased” value (Regimen 1A N = 16, Grade 3/4) was 8 (50.0) n (%), the “AE: Total” value (Regimen 1A N = 16, Grade 3/4) was 12 (75.0) n (%) and the “AE: Tumour Lysis Syndrome” value (Regimen 1A N = 16, Grade 3/4) was 7 (43.8) n (%). For the same molecule, the “AE: Vomiting” value (Regimen 1A N = 16, Grade 3/4) was 0 n (%), the “AE: Weight Decreased” value (Regimen 1A N = 16, Grade 3/4) was 0 n (%) and the “AE: White Blood Cell Count Decreased” value (Regimen 1A N = 16, Grade 3/4) was 0 n (%). For the same molecule, the “AE: Abdominal Discomfort” value (Regimen 1B N = 6, All Grades) was 0 n (%), the “AE: Abdominal Pain” value (Regimen 1B N = 6, All Grades) was 0 n (%) and the “AE: Abdominal Pain Upper” value (Regimen 1B N = 6, All Grades) was 0 n (%). The “AE: Acute Kidney Injury” value (Regimen 1B N = 6, All Grades) was 1 (16.7) n (%), the “AE: Amylase Increased” value (Regimen 1B N = 6, All Grades) was 0 n (%) and the “AE: Anaemia” value (Regimen 1B N = 6, All Grades) was 2 (33.3) n (%). For the same molecule, the “AE: Arthralgia” value (Regimen 1B N = 6, All Grades) was 0 n (%), the “AE: Asthenia” value (Regimen 1B N = 6, All Grades) was 1 (16.7) n (%) and the “AE: Atrial Fibrillation” value (Regimen 1B N = 6, All Grades) was 0 n (%). For the same molecule, the “AE: Atypical Pneumonia” value (Regimen 1B N = 6, All Grades) was 0 n (%), the “AE: Balanitis Candida” value (Regimen 1B N = 6, All Grades) was 0 n (%) and the “AE: Blood Alkaline Phosphatase Increased” value (Regimen 1B N = 6, All Grades) was 0 n (%). The “AE: Blood Bilirubin Increased” value (Regimen 1B N = 6, All Grades) was 1 (16.7) n (%), the “AE: Blood Creatinine Increased” value (Regimen 1B N = 6, All Grades) was 0 n (%) and the “AE: Blood Phosphorus Increased” value (Regimen 1B N = 6, All Grades) was 1 (16.7) n (%). For the same molecule, the “AE: Blood Uric Acid Increased” value (Regimen 1B N = 6, All Grades) was 0 n (%), the “AE: Bone Marrow Failure” value (Regimen 1B N = 6, All Grades) was 0 n (%) and the “AE: C-Reactive Protein Increased” value (Regimen 1B N = 6, All Grades) was 0 n (%). For the same molecule, the “AE: Cardiac Failure” value (Regimen 1B N = 6, All Grades) was 0 n (%), the “AE: Cellulitis” value (Regimen 1B N = 6, All Grades) was 1 (16.7) n (%) and the “AE: Chronic Graft Versus Host Disease” value (Regimen 1B N = 6, All Grades) was 0 n (%). For the same molecule, the “AE: Conjunctival Haemorrhage” value (Regimen 1B N = 6, All Grades) was 0 n (%), the “AE: Constipation” value (Regimen 1B N = 6, All Grades) was 1 (16.7) n (%) and the “AE: Cough” value (Regimen 1B N = 6, All Grades) was 0 n (%). The “AE: Cystitis Viral” value (Regimen 1B N = 6, All Grades) was 0 n (%), the “AE: Cytomegalovirus Infection” value (Regimen 1B N = 6, All Grades) was 0 n (%) and the “AE: Decreased Appetite” value (Regimen 1B N = 6, All Grades) was 1 (16.7) n (%). The “AE: Diarrhoea” value (Regimen 1B N = 6, All Grades) was 0 n (%), the “AE: Dyspepsia” value (Regimen 1B N = 6, All Grades) was 0 n (%) and the “AE: Dyspnoea” value (Regimen 1B N = 6, All Grades) was 0 n (%). For the same molecule, the “AE: Epistaxis” value (Regimen 1B N = 6, All Grades) was 0 n (%), the “AE: Fatigue” value (Regimen 1B N = 6, All Grades) was 0 n (%) and the “AE: Febrile Neutropenia” value (Regimen 1B N = 6, All Grades) was 2 (33.3) n (%). The “AE: Gamma-Glutamyltransferase Increased” value (Regimen 1B N = 6, All Grades) was 0 n (%), the “AE: General Physical Health Deterioration” value (Regimen 1B N = 6, All Grades) was 0 n (%) and the “AE: Gingival Bleeding” value (Regimen 1B N = 6, All Grades) was 0 n (%). For the same molecule, the “AE: Graft Versus Host Disease” value (Regimen 1B N = 6, All Grades) was 0 n (%), the “AE: Haemoglobin Decreased” value (Regimen 1B N = 6, All Grades) was 0 n (%) and the “AE: Headache” value (Regimen 1B N = 6, All Grades) was 1 (16.7) n (%). The “AE: Hyperbilirubinaemia” value (Regimen 1B N = 6, All Grades) was 1 (16.7) n (%), the “AE: Hyperglycaemia” value (Regimen 1B N = 6, All Grades) was 0 n (%) and the “AE: Hyperkalaemia” value (Regimen 1B N = 6, All Grades) was 1 (16.7) n (%). For the same molecule, the “AE: Hyperphosphataemia” value (Regimen 1B N = 6, All Grades) was 1 (16.7) n (%), the “AE: Hyperuricaemia” value (Regimen 1B N = 6, All Grades) was 2 (33.3) n (%) and the “AE: Hypoalbuminaemia” value (Regimen 1B N = 6, All Grades) was 0 n (%). For the same molecule, the “AE: Hypocalcaemia” value (Regimen 1B N = 6, All Grades) was 0 n (%), the “AE: Hypokalaemia” value (Regimen 1B N = 6, All Grades) was 1 (16.7) n (%) and the “AE: Hypomagnesaemia” value (Regimen 1B N = 6, All Grades) was 0 n (%). The “AE: Hyponatraemia” value (Regimen 1B N = 6, All Grades) was 1 (16.7) n (%), the “AE: Hypophosphataemia” value (Regimen 1B N = 6, All Grades) was 0 n (%) and the “AE: Hypotension” value (Regimen 1B N = 6, All Grades) was 0 n (%). The “AE: Infection” value (Regimen 1B N = 6, All Grades) was 0 n (%), the “AE: Infective Glossitis” value (Regimen 1B N = 6, All Grades) was 0 n (%) and the “AE: Iron Overload” value (Regimen 1B N = 6, All Grades) was 0 n (%). The “AE: Leukopenia” value (Regimen 1B N = 6, All Grades) was 0 n (%), the “AE: Lip Oedema” value (Regimen 1B N = 6, All Grades) was 0 n (%) and the “AE: Lipase Increased” value (Regimen 1B N = 6, All Grades) was 0 n (%). For the same molecule, the “AE: Macular Oedema” value (Regimen 1B N = 6, All Grades) was 1 (16.7) n (%), the “AE: Malaise” value (Regimen 1B N = 6, All Grades) was 0 n (%) and the “AE: Mouth Haemorrhage” value (Regimen 1B N = 6, All Grades) was 0 n (%). For the same molecule, the “AE: Nausea” value (Regimen 1B N = 6, All Grades) was 4 (66.7) n (%), the “AE: Neutropenia/Neutrophil Count Decreased” value (Regimen 1B N = 6, All Grades) was 1 (16.7) n (%) and the “AE: Oedema” value (Regimen 1B N = 6, All Grades) was 0 n (%). The “AE: Oedema Peripheral” value (Regimen 1B N = 6, All Grades) was 1 (16.7) n (%), the “AE: Oral Disorder” value (Regimen 1B N = 6, All Grades) was 0 n (%) and the “AE: Pain In Extremity” value (Regimen 1B N = 6, All Grades) was 0 n (%). The “AE: Pancytopenia” value (Regimen 1B N = 6, All Grades) was 1 (16.7) n (%), the “AE: Pneumonia” value (Regimen 1B N = 6, All Grades) was 0 n (%) and the “AE: Pollakiuria” value (Regimen 1B N = 6, All Grades) was 0 n (%). For the same molecule, the “AE: Pyrexia” value (Regimen 1B N = 6, All Grades) was 0 n (%), the “AE: Rash” value (Regimen 1B N = 6, All Grades) was 0 n (%) and the “AE: Rash Erythematous” value (Regimen 1B N = 6, All Grades) was 0 n (%). The “AE: Rash Papular” value (Regimen 1B N = 6, All Grades) was 0 n (%), the “AE: Rectal Haemorrhage” value (Regimen 1B N = 6, All Grades) was 1 (16.7) n (%) and the “AE: Renal Failure” value (Regimen 1B N = 6, All Grades) was 0 n (%). The “AE: Skin Exfoliation” value (Regimen 1B N = 6, All Grades) was 0 n (%).

Reference: patent US10966978B2, “Dose and regimen for HDM2-p53 interaction inhibitors” (Novartis AG, priority 2016, dated 2021)
